Assay results from US6673938B1, “Substituted pyridine herbicides” (Syngenta Participations AG, priority 1998, dated 2004).

Legend:
[1] = test system: Monocotyledonous and dicotyledonous test plants; assay: Herbicidal action before emergence of the plants (pre-emergence action); format: in vivo; conditions: 2000 g/ha, evaluated after 3 weeks, nine-step scale
How it was run: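 Sprayed onto soil immediately after sowing as WP suspension or EC emulsion at 2 kg or 250 g a.i./ha (500 l water/ha). Greenhouse growth for 3 weeks, then scored on a nine-step scale (1 = complete damage, 9 = no effect).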

[2] = test system: Monocotyledonous and dicotyledonous test plants; assay: Post-emergence herbicidal action; format: in vivo; conditions: 2000 g/ha, sprayed in 4- to 6-leaf stage, evaluated after approximately 18 days, nine-step scale
How it was run: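 Greenhouse plants sprayed at the 4- to 6-leaf stage with test substance as wettable-powder suspension or emulsion-concentrate emulsion, 2 kg or 250 g a.i./ha in 500 l water/ha. Scored after about 18 days on a nine-step scale (1=complete damage, 9=no effect).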

Row | melting point | Compound | pre-emergence action, Cyperus [1] | pre-emergence action, Ipomoea [1] | pre-emergence action, Setaria [1] | pre-emergence action, Sinapis [1] | pre-emergence action, Solanum [1] | pre-emergence action, Stellaria [1] | Post-emergence action, Ipomoea [2] | Post-emergence action, Lolium [2] | Post-emergence action, Setaria [2] | Post-emergence action, Sinapis [2] | Post-emergence action, Solanum [2] | Post-emergence action, Stellaria [2]
1 | 119 °C | Cc1nc(C(F)(F)F)ccc1C(=O)C1=C(Cl)C(C)(C)C(=O)C(C)(C)C1=O [Compound A2-B1105, 5-Chloro-2,2,6,6-tetramethyl-4-(2-methyl-6-trifluoromethylpyridine-3-carbonyl)cyclohex-4-ene-1,3-dione] |  |  |  |  |  |  |  |  |  |  |  | 
2 | 108 to 110 °C | COC(=O)C1(C)CCC(=O)C(C(=O)c2ccc(C(F)(F)Cl)nc2C)=C1O (centres unmarked) [Compound A94-B34, methyl 3-[6-(chlorodifluoromethyl)-2-methylpyridine-3-carbonyl]-2-hydroxy-1-methyl-4-oxocyclohex-2-enecarboxylate] |  |  |  |  |  |  |  |  |  |  |  | 
3 | 90 to 92 °C | Cc1nc(C(F)(F)F)ccc1C(=O)C1=C(O)CCCC1=O [Compound A2-B1, 3-hydroxy-2-(2-methyl-6-trifluoromethylpyridine-3-carbonyl)cyclohex-2-enone] | 2 | 2 | 1 | 2 | 2 | 1 | 1 | 2 | 1 | 1 | 1 | 2
4 | 75 to 76 °C | Cc1nc(C(F)(F)F)ccc1C(=O)C1=C(O)C(C)(C)CCC1=O [Compound A2-B24, 3-Hydroxy-4,4-dimethyl-2-(2-methyl-6-trifluoromethylpyridine-3-carbonyl)cyclohex-2-enone] | 1 | 1 | 1 | 2 | 1 | 1 | 1 | 2 | 2 | 1 | 2 | 2

The next lines start with the compound.

Row | Compound | melting point | pre-emergence action, Cyperus [1] | pre-emergence action, Ipomoea [1] | pre-emergence action, Setaria [1] | pre-emergence action, Sinapis [1] | pre-emergence action, Solanum [1] | pre-emergence action, Stellaria [1] | Post-emergence action, Ipomoea [2] | Post-emergence action, Lolium [2] | Post-emergence action, Setaria [2] | Post-emergence action, Sinapis [2] | Post-emergence action, Solanum [2] | Post-emergence action, Stellaria [2]
5 | Cc1nc(C(F)(F)F)ccc1C(=O)C1=C(O)C(C)(C)C(=O)C(C)(C)C1=O [Compound A2-B354, 5-hydroxy-2,2,6,6-tetramethyl-4-(2-methyl-6-trifluoromethylpyridine-3-carbonyl)cyclohex-4-ene-1,3-dione] | 139 to 140 °C | 1 | 1 | 1 | 1 | 1 | 2 | 2 | 2 | 2 | 2 | 2 | 2
6 | Cc1nc(C(F)(F)F)ccc1C(=O)C1=C(S(=O)(=O)c2ccccc2)CCCC1=O [Compound A2-B1104, 3-Benzenesulfonyl-2-(2-methyl-6-trifluoromethylpyridine-3-carbonyl)cyclohex-2-enone] | 165 to 167 °C |  |  |  |  |  |  |  |  |  |  |  | 
7 | Cc1nc(C(F)(F)F)ccc1C(=O)C1=C(Sc2ccccc2)CCCC1=O [Compound A2-B1102, 2-(2-methyl-6-trifluoromethylpyridine-3-carbonyl)-3-phenylsulfanylcyclohex-2-enone] | 124 to 125 °C |  |  |  |  |  |  |  |  |  |  |  | 
8 | CC1(C)C(=O)C(C(=O)c2ccc(C(F)(F)F)nc2CBr)=C(Cl)C(C)(C)C1=O [Compound A1029-B1105, 4-(2-Bromomethyl-6-trifluoromethylpyridine-3-carbonyl)-5-chloro-2,2,6,6-tetramethylcyclohex-4-ene-1,3-dione] | 94.5 to 95 °C |  |  |  |  |  |  |  |  |  |  |  | 
9 | Cc1cc(C(=O)C2=C(O)C(C)(C)CCC2=O)c(C)nc1C(F)(F)F [Compound A184-B24] |  | 1 | 3 | 2 | 2 | 1 | 2 | 1 | 2 | 2 | 1 | 2 | 2
10 | Cc1nc(C(F)(F)F)ccc1C(=O)C1=C(O)C(C)(C)CC2(CC2)C1=O [Compound A2-C24] |  | 1 | 2 | 1 | 1 | 1 | 2 | 1 | 1 | 1 | 1 | 1 | 1
